Patent US10857209B2, “Lysosomal acid lipase and PPAR gamma ligands as immune therapies for cancer treatment” (Indiana University Research and Technology Corporation, priority 2016, dated 2020)

Assays:
Type in all cases: cell-based, mouse
[1] = system: HD1B cells; experiment: Mitochondrial membrane potential assay (JC1) in HD1A and HD1B cells; conditions: for mitochondrial membrane potential (JC-1 staining): NAC 100 μM or Tempol 10 μM overnight
Protocol: (§1) HD1A and HD1B cells were grown in 24-well plates to the desired confluence. Cells were treated with solvent (DMSO, 0.1%), rapamycin (40 nM), or PP242 (40 nM) for 1 hour, or NAC (100 μM, Sigma-Aldrich), or Tempol (10 μM, Sigma-Aldrich) overnight. Treated cells were replaced with the pre-warmed (37° C.) medium containing JC1 (5 μM, Molecular Probes) for 1 hour. Labeled cells were replaced with fresh medium and examined under the Nikon inverted fluorescence microscope.

[2] = system: HD1B cells; experiment: ROS measurement by flow cytometry in HD1A and HD1B cells; conditions: 40 nM, 60 minutes
Protocol: HD1A and HD1B cells were treated with solvent, rapamycin (40 nM), or PP242 (40 nM) for 60 minutes. Cells were washed and stained with 2 μM of 2′,7′-dichlorodihydrofluorescein diacetate stained (DCFDA, Invitrogen) which is nonfluorescent until the acetate group is removed by intracellular esterases and oxidation occurs within the cell (Invitrogen). The incubation was at 37° C. for 20 minutes, followed by washing with cold PBS. The ROS level was measured by flow cytometry.

[3] = system: mTOR signaling pathway; experiment: Western blot of mTOR downstream effector S6 phosphorylation in HD1A and HD1B cells
Protocol: HD1A and HD1B cells were lysed in the Cell Lytic M mammalian cell lysis/extraction buffer (Sigma-Aldrich) according to the manufacturer's instruction. Protein samples were fractionated on a Novex 4-20% Tris-Glycine Mini Gel (Invitrogen). After transferring to the polyvinylidene difluoride membrane (Bio-Rad), the membrane was blotted with 5% nonfat dry milk in 1×PBS, and incubated with rabbit anti-p-S6 (Ser235/236), anti-S6, anti-p-Drp1 (Ser616), anti-Drp1, and anti-actin primary antibodies (from Cell Signaling), or rat anti-LAMP1, rabbit anti-Opa1 antibodies (from Santa Cruz). Following incubation with the secondary antibody that conjugated with horse radish peroxidase, proteins were visualized with chemiluminescent substrate (Thermo Scientific) under ChemiDox MP Image System.
as §1

CC(=O)N[C@@H](CS)C(=O)O [NAC]
mitochondrial membrane potential (JC-1 staining) [1]: partially improved the condition of the mitochondrial membrane potential

CC(C)n1nc(-c2cc3cc(O)ccc3[nH]2)c2c(N)ncnc21 [PP242]
ROS production [2]: decreased ROS production | mitochondrial membrane potential (JC1 staining) ([1]; mTOR inhibitor 40 nM, 1 hour): reversed the damaged mitochondrial membrane potential | mTOR downstream effector S6 phosphorylation [3]: blocked mTOR downstream effector S6 phosphorylation

CC1(C)CC(O)CC(C)(C)N1[O] [TEMPOL]
mitochondrial membrane potential (JC-1 staining) [1]: partially improved the condition of the mitochondrial membrane potential
